Data: patent publication US20250249102A1, “CMV-HIV SPECIFIC CHIMERIC ANTIGEN RECEPTOR T CELLS” (priority 2022, published 2025)
Like-named read-outs stand apart in the source and are kept apart here.

Key:
[1] = test system: HIV-1 BaL or HIV-1 NL4-3; settings: for HIV replication: CD8+-depleted PBMCs infected with HIV-1 BaL or HIV-1 NL4-3
[2] = test system: HIV-1 BaL or HIV-1 NL4-3; assay: microbe, parasite or virus in culture; settings: Human immunodeficiency virus 1, PBMC

`CC(C)CN(C[C@@H](O)[C@H](Cc1ccccc1)NC(=O)O[C@H]1CO[C@H]2OCC[C@H]21)S(=O)(=O)c1ccc(N)cc1` [darunavir] was tested, and the HIV replication [1] was “prevent HIV replication” and the EC50 [2] was 4.3 nM.

In the case of enfuvirtide, the EC50 [1] is reported as 27.9 nM and the HIV replication [1] is reported as “prevent HIV replication”.
